US9822147B2, “Methods of treating ophthalmic diseases using NPR-B agonists” (priority 2009, dated 2017)
Numbered stars: 1 amine (or outer) side, 2 acyl side, 3 side chain; on linkers, the order of the positions; unused ones are H or OH. Square brackets hold non-standard residues; d marks the D form. Peptide text beside a SMILES is read from it. * marks the point of attachment. Phe(3,4-Cl2) = N[C@@H](Cc1ccc(Cl)c(Cl)c1)C(=O)O; X16 = CCN[C@@H]1C[C@@H](C(=O)[*:2])N([*:1])C1; Pro(4R-NH2) = N[C@H]1CN[C@H](C(=O)O)C1; X9 = CN(C)CC[C@@H](N[*:1])C(=O)[*:2]; dOrn(Me2) = CN(C)CCC[C@@H](N)C(=O)O; X2 = O=C([C@H]1CCCN([*:1])C1)[*:2]; Hyp = O=C(O)[C@@H]1C[C@@H](O)CN1; NMeF = CN[C@@H](Cc1ccccc1)C(=O)O; NHcycloheptyl = C1CCCC(N*)CC1; NMeL = CN[C@@H](CC(C)C)C(=O)O; X6 = C[C@@H]1CCCC[C@H]1N*; Octanoyl = CCCCCCCC(=O)*; Api = NC1(C(=O)O)CCNCC1; tBu = CC(C)(C)*

molecular target: T1, NPR-B (Homo sapiens, UniProt P20594); experiment: NPR-B induced production of cyclic GMP in human glaucoma trabecular meshwork cells (GTM-3); assay type: cell-based; settings: group by EC50 and Emax (CNP = 100%); Table 4; read-out: Activity (group), NPR-B activation assayed with GTM-3 cells
T1 construct: a functional assay using endogenously NPR-B expressing GTM-3 cells; endogenous in cells; host or cells: GTM-3 (human glaucoma trabecular meshwork cells)
T1 sequence (P20594 23-1047): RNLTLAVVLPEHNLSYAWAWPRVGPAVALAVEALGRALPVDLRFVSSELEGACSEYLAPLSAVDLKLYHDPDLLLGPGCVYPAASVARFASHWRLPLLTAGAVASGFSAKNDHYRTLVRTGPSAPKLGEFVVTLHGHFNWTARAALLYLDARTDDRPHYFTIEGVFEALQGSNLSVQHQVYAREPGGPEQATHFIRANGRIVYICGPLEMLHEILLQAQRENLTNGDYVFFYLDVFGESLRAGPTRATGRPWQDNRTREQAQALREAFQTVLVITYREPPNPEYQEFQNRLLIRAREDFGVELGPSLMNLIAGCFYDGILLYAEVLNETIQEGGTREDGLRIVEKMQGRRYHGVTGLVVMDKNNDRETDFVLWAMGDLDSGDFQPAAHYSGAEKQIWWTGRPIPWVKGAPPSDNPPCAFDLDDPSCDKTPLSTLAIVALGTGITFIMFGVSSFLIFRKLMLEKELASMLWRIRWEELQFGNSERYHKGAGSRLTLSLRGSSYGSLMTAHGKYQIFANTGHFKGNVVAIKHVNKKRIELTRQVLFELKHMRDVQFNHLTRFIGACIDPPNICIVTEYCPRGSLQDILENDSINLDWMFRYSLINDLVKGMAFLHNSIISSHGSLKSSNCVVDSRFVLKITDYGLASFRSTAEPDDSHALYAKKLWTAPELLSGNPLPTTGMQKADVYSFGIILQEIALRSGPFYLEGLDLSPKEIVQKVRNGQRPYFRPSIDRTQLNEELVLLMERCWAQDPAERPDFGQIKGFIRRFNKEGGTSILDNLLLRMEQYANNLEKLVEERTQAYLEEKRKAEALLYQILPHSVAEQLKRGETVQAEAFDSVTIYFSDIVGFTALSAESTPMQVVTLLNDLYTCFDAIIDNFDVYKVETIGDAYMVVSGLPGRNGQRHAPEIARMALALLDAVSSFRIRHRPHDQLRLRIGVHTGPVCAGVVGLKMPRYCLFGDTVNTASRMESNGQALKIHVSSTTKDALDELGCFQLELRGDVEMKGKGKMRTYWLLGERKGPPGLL

EC50, < 1 µM:
CCCCCCCCN1CCC[C@H](C(=O)N[C@@H](Cc2ccccc2)C(=O)N[C@H](CC(C)C)C(=O)N[C@@H](CC(C)C)C(=O)N2C[C@H](N)C[C@H]2C(=O)N(C)[C@@H](CC(C)C)C(=O)N[C@@H](CC(=O)O)C(=O)N[C@@H](CCCNC(=N)N)C(=O)N[C@H](C(N)=O)[C@@H](C)CC)C1 [JAL-1326, Oct-Sni-Phe-leu-Leu-Tap-Nml-Asp-Arg-Ile-NH2] (HELM PEPTIDE1{[CCCCCCCCN1CCC[C@H](C(=O)[*:2])C1].F.[dL].L.[N[C@@H]1C[C@@H](C(=O)[*:2])N([*:1])C1].[meL].D.R.I.[am]}$$$$V2.0)
CCCCCCCC(=O)N1CCCC[C@@H]1C(=O)N[C@@H](Cc1ccccc1)C(=O)N[C@H](CCCNC(=N)N)C(=O)N[C@@H](CC(C)C)C(=O)N1CCC[C@H]1C(=O)N(C)[C@@H](CC(C)C)C(=O)N[C@@H](CC(=O)O)C(=O)N[C@@H](CCCNC(=N)N)C(=O)N[C@H](C(N)=O)[C@@H](C)CC [JAL-1078, Occ-pip-Phe-arg-Leu-Pro-Nml-Asp-Arg-Ile-NH2] (HELM PEPTIDE1{[CCCCCCCC(=O)[*:2]].[O=C([C@H]1CCCCN1[*:1])[*:2]].F.[dR].L.P.[meL].D.R.I.[am]}$$$$V2.0)
CCCCCCCC(=O)N1CCC[C@H](C(=O)N[C@@H](Cc2ccccc2)C(=O)N[C@H](CCCN(C)C)C(=O)N[C@@H](CC(C)C)C(=O)N2C[C@H](N)C[C@H]2C(=O)N(C)[C@@H](CC(C)C)C(=O)N[C@H](C(=O)N[C@@H](CCCNC(=N)N)C(=O)NC2CCCCCC2)C(C)C)C1 [JAL-1850, Occ-Sni-Phe-orn(Me2)-Leu-Tap-Nml-Val-Arg-Che] (Octanoyl-[X2]F[dOrn(Me2)]L[Pro(4R-NH2)][NMeL]VR-NHcycloheptyl)
CCCCCCCC(=O)N[C@H](C)C(=O)N(C)[C@@H](Cc1ccccc1)C(=O)N[C@H](CC(C)C)C(=O)N[C@@H](CC(C)C)C(=O)N1C[C@H](O)C[C@H]1C(=O)N(C)[C@@H](CC(C)C)C(=O)N[C@@H](CC(=O)O)C(=O)N[C@@H](CCCNC(=N)N)C(=O)N[C@H](C(N)=O)[C@@H](C)CC [JAL-1267, Occ-ala-Nmf-leu-Leu-Hyp-Nml-Asp-Arg-Ile-NH2] (HELM PEPTIDE1{[CCCCCCCC(=O)[*:2]].[dA].[meF].[dL].L.[Hyp].[meL].D.R.I.[am]}$$$$V2.0)
CCCCCCCC(=O)N[C@H](C)C(=O)N[C@@H](Cc1ccccc1)C(=O)N[C@H](CCCC)C(=O)N[C@@H](CC(C)C)C(=O)N1C[C@H](O)C[C@H]1C(=O)N(C)[C@@H](CC(C)C)C(=O)N[C@@H](CC(=O)O)C(=O)N[C@@H](CCCNC(=N)N)C(=O)N[C@H](C(N)=O)[C@@H](C)CC [JAL-1044, Occ-ala-Phe-nle-Leu-Hyp-Nml-Asp-Arg-Ile-NH2] (HELM PEPTIDE1{[CCCCCCCC(=O)[*:2]].[dA].F.[CCCC[C@@H](N[*:1])C(=O)[*:2]].L.[Hyp].[meL].D.R.I.[am]}$$$$V2.0)
CCCCCCCC(=O)N1CCC[C@H](C(=O)N[C@@H](Cc2ccccc2)C(=O)N[C@H](CSC(C)(C)C)C(=O)N[C@@H](CC(C)C)C(=O)N2C[C@H](O)C[C@H]2C(=O)N(C)[C@@H](CC(C)C)C(=O)N[C@@H](CC(=O)O)C(=O)N[C@@H](CCCNC(=N)N)C(=O)N[C@H](C(N)=O)[C@@H](C)CC)C1 [JAL-1623, Occ-Sni-Phe-ctb-Leu-Hyp-Nml-Asp-Arg-Ile-NH2] (Octanoyl-[X2]F[dC](tBu)L[Hyp][NMeL]DRI-NH2)
CCCCCCCC(=O)N1CCC[C@H](C(=O)N[C@@H](Cc2ccc(Cl)c(Cl)c2)C(=O)N[C@H](CC(C)C)C(=O)N[C@@H](CC(C)C)C(=O)N2C[C@H](O)C[C@H]2C(=O)N(C)[C@@H](CC(C)C)C(=O)N[C@@H](CC(=O)O)C(=O)N2CCC[C@H]2C(=O)NC2CCCCCC2)C1 [JAL-1599, Occ-Sni-Eaa-leu-Leu-Hyp-Nml-Asp-Pro-Che] (Octanoyl-[X2][Phe(3,4-Cl2)][dL]L[Hyp][NMeL]DP-NHcycloheptyl)
CCCCCCCC(=O)N1CCC[C@H](C(=O)N[C@@H](Cc2ccccc2)C(=O)N[C@H](CC(C)C)C(=O)N[C@@H](CC(C)C)C(=O)N2C[C@H](O)C[C@H]2C(=O)N(C)[C@@H](CC(C)C)C(=O)N[C@@H](CC(=O)O)C(=O)N[C@@H](CCCNC(=N)N)C(=O)NC2CCCCCC2)C1 [JAL-1680, Occ-Sni-Phe-leu-Leu-Hyp-Nml-Asp-Arg-Che] (Octanoyl-[X2]F[dL]L[Hyp][NMeL]DR-NHcycloheptyl)
CCCCCC[C@H](NC(=O)[C@@H]1CCCN1C(=O)[C@@H](N)CCCCN)C(=O)N1CCC[C@H](C(=O)N[C@@H](Cc2ccccc2)C(=O)N[C@H](CC(C)C)C(=O)N[C@@H](CC(C)C)C(=O)N2C[C@H](O)C[C@H]2C(=O)N(C)[C@@H](CC(C)C)C(=O)N[C@@H](CC(=O)O)C(=O)N[C@@H](CCCNC(=N)N)C(=O)N[C@H](C(N)=O)[C@@H](C)CC)C1 [JAL-1900, H-Lys-Pro-Hgl-Sni-Phe-leu-Leu-Hyp-Nml-Asp-Arg-Ile-NH2] (HELM PEPTIDE1{K.P.[CCCCCC[C@H](N[*:1])C(=O)[*:2]].[O=C([C@H]1CCCN([*:1])C1)[*:2]].F.[dL].L.[Hyp].[meL].D.R.I.[am]}$$$$V2.0)
CCCCCCCC(=O)N1CCC[C@H](C(=O)N[C@@H](Cc2ccccc2)C(=O)N[C@H](CC(C)C)C(=O)N[C@@H](CC(C)C)C(=O)N2C[C@H](O)C[C@H]2C(=O)N(C)[C@@H](CC(C)C)C(=O)N[C@@H](CC(=O)O)C(=O)N2CCC[C@H]2C(=O)N[C@@H]2CCCC[C@H]2C)C1 [JAL-1510, Occ-Sni-Phe-leu-Leu-Hyp-Nml-Asp-Pro-1860] (Octanoyl-[X2]F[dL]L[Hyp][NMeL]DP-X6)
CCCCCCCC(=O)N1CCC[C@H](C(=O)N(C)[C@@H](Cc2ccccc2)C(=O)N[C@H](CC(C)C)C(=O)N[C@@H](CC(C)C)C(=O)N2C[C@H](O)C[C@H]2C(=O)N(C)[C@@H](CC(C)C)C(=O)N[C@@H](CC(=O)O)C(=O)N2CCC[C@H]2C(=O)NC2CCCCCC2)C1 [JAL-1597, Occ-Sni-Nmf-leu-Leu-Hyp-Nml-Asp-Pro-Che] (Octanoyl-[X2][NMeF][dL]L[Hyp][NMeL]DP-NHcycloheptyl)
CCCCCCCC(=O)N1CCC[C@H](C(=O)N[C@@H](Cc2ccccc2)C(=O)NC2(C(=O)N[C@@H](CC(C)C)C(=O)N3C[C@H](N)C[C@H]3C(=O)N(C)[C@@H](CC(C)C)C(=O)N[C@@H](CC(=O)O)C(=O)N3CCC[C@H]3C(=O)N[C@H](C(N)=O)[C@@H](C)CC)CCNCC2)C1 [JAL-1561, Occ-Sni-Phe-Apc-Leu-Tap-Nml-Asp-Pro-Ile-NH2] (Octanoyl-[X2]F[Api]L[Pro(4R-NH2)][NMeL]DPI-NH2)
CCCCCCCC(=O)N1CCCC[C@@H]1C(=O)N(C)[C@@H](Cc1ccccc1)C(=O)N[C@H](CCCNC(=N)N)C(=O)N[C@@H](CC(C)C)C(=O)N1CCC[C@H]1C(=O)N(C)[C@@H](CC(C)C)C(=O)N[C@@H](CC(=O)O)C(=O)N[C@@H](CCCNC(=N)N)C(=O)N[C@H](C(N)=O)[C@@H](C)CC [JAL-1077, Occ-pip-Nmf-arg-Leu-Pro-Nml-Asp-Arg-Ile-NH2] (HELM PEPTIDE1{[CCCCCCCC(=O)[*:2]].[O=C([C@H]1CCCCN1[*:1])[*:2]].[meF].[dR].L.P.[meL].D.R.I.[am]}$$$$V2.0)
CCCCCCCC(=O)N1CCC[C@H](C(=O)N[C@@H](Cc2ccccc2)C(=O)N[C@H](CCN(C)C)C(=O)N[C@@H](CC(C)C)C(=O)N2C[C@H](O)C[C@H]2C(=O)N(C)[C@@H](CC(C)C)C(=O)N[C@@H](CC(=O)O)C(=O)N[C@@H](CCCNC(=N)N)C(=O)N[C@H](C(N)=O)[C@@H](C)CC)C1 [JAL-1785, Occ-Sni-Phe-dab(Me2)-Leu-Hyp-Nml-Asp-Arg-Ile-NH2] (Octanoyl-[X2]F[X9]L[Hyp][NMeL]DRI-NH2)
CCCCCCCC(=O)N1CCC[C@H](C(=O)N[C@@H](Cc2ccccc2)C(=O)N[C@H](CC(C)C)C(=O)N[C@@H](CC(C)C)C(=O)N2C[C@H](NCC)C[C@H]2C(=O)N(C)[C@@H](CC(C)C)C(=O)N[C@@H](CC(=O)O)C(=O)N[C@@H](CCCNC(=N)N)C(=O)N[C@H](C(N)=O)[C@@H](C)CC)C1 [JAL-1349, Occ-Sni-Phe-leu-Leu-Tap(Et)-Nml-Asp-Arg-Ile-NH2] (Octanoyl-[X2]F[dL]L[X16][NMeL]DRI-NH2)
